Read-outs that look alike come from different tables or passages of the source.
Key:
[1] = system: HS 578T; test: NCI60 5-dose screen, HS 578T; format: cell-based; details: Homo sapiens, breast cancer, Fig 1D, read-out: Log10 GI50 (HS 578T) (converted)
Description: (§1) The screening methodology used in the NCI60 Cell 5-Doses screen is described in detail at https://dtp.cancer.gov/discovery_development/nci-60/methodology.htm. Briefly, cells are seeded in 96 well plates at an appropriate density and incubated for 1 day. After 1 day, some of the plates are processed to determine a time zero density. To the remaining plates, compounds are added over a 5-log M concentration range (1 log dilutions from 10^-4M to 10^-8M). Plates are incubated for two additional days, then fixed and stained with sulforhodamine B. Growth inhibition is calculated relative to cells without drug treatment and the time zero control. The GI50 is the concentration of a compound that causes 50% growth inhibition, relative to the no drug control.

[2] = system: MDA-MB-231/ATCC; test: NCI60 5-dose screen, MDA-MB-231/ATCC; format: cell-based; details: Homo sapiens, breast cancer, Fig 1D, read-out: Log10 GI50 (MDA-MB-231/ATCC) (converted)
Description: as §1

[3] = system: Jurkat cells; test: 3-day MTS cell viability assay, Jurkat; format: cell-based; details: Homo sapiens, 72 hours, Fig 1C
Description: All cancer cell lines (HT-29: colorectal adenocarcinoma, HCT-116: colorectal carcinoma, A549: lung epithelial carcinoma, PC3: prostate adenocarcinoma, Jurkat: acute T-cell leukemia, BC-1: primary effusion lymphoma) and the normal human embryonal lung fibroblast cell line MRC-5 were acquired from the American Type Culture Collection (ATCC). All cell lines were cultured as recommended by the suppliers. Culture media were purchased from Gibco (Thermo Fisher Scientific) and supplemented with 10 to 20% fetal bovine serum (HyClone, GE Healthcare Life Sciences) and 20–25 μg/mL gentamicin (Gibco, Thermo Fisher Scientific). […]
Cell viability in cancer cell lines treated with compound was measured in a 3-day MTS cell proliferation assay using the CellTiter 96 AQueous Non-Radioactive Cell Proliferation Assay reagent (Promega) according to the manufacturer’s instructions. Absorbance was read at 490 nm on a SaFire II microplate reader (Tecan). CC50 values were calculated by fitting the obtained MTS cell viability data in GraphPad Prism using a 4-parameter log–based fit for inhibitors. Apoptosis induction and cell death upon compound treatment in PBMC was measured using the Alexa Fluor 488 Annexin V/Dead Cell Apoptosis Kit (Thermo Fisher Scientific), with readout on a FACSCanto II flow cytometer (BD Biosciences). […] The compounds were evaluated in duplo in two independent experiments.

[4] = system: M14; test: NCI60 5-dose screen, M14; format: cell-based; details: Homo sapiens, melanoma, Fig 1D, read-out: Log10 GI50 (M14) (converted)
Description: as §1

[5] = system: SW-620; test: NCI60 5-dose screen, SW-620; format: cell-based; details: Homo sapiens, colon cancer, Fig 1D, read-out: Log10 GI50 (SW-620) (converted)
Description: as §1

[6] = system: SF-539; test: NCI60 5-dose screen, SF-539; format: cell-based; details: Homo sapiens, CNS cancer, Fig 1D, read-out: Log10 GI50 (SF-539) (converted)
Description: as §1

[7] = system: MCF7; test: NCI60 5-dose screen, MCF7; format: cell-based; details: Homo sapiens, breast cancer, Fig 1D, read-out: Log10 GI50 (MCF7) (converted)
Description: as §1

[8] = system: HCT-15; test: NCI60 5-dose screen, HCT-15; format: cell-based; details: Homo sapiens, colon cancer, Fig 1D, read-out: Log10 GI50 (HCT-15) (converted)
Description: as §1

[9] = system: microtubule network in A549 cells; test: Immunofluorescence staining of alpha-tubulin in A549 cells; format: cell-based, human; details: 4 hours, 250 nM
Description: Non-small cell lung carcinoma A549 cells were seeded at 50,000 cells/well in an 8-well Nunc™ Lab-Tek™ chambered coverglass slide. After overnight incubation, they were treated with compound or carrier (DMSO) for 4 hours and then fixed with 4% PFA, washed and permeabilized (0.2% Triton X-100 in PBS). Further treatment was performed according to standard immunofluorescence procedures, employing 10% normal goat serum (Thermo Fisher Scientific) as blocking medium and as antibody diluent. Employed antibodies were mouse anti-alpha tubulin (sc-5286, Santa Cruz Biotechnology) at 1:300 dilution and secondary goat anti-mouse IgG conjugated to Alexa Fluor® 488 (A11001, Invitrogen, Thermo Fisher Scientific). Cell nuclei were counterstained with DAPI. Images were collected with a Leica TCS SP5 confocal microscope employing a HCX PL APO 63x (NA 1.2) water immersion objective.

[10] = system: NCI-60 Human Tumor Cell Lines; test: NCI-60 Human Tumor Cell Lines Screen (whole panel); format: cell-based; details: NCI-60 panel; for GI50: Homo sapiens, mean across all cell lines
Description: as §1

[11] = system: T-47D; test: NCI60 5-dose screen, T-47D; format: cell-based; details: Homo sapiens, T47D; breast cancer; Fig 1D; read-out: Log10 GI50 (T-47D) (converted)
Description: as §1

[12] = system: MALME-3M; test: NCI60 5-dose screen, MALME-3M; format: cell-based; details: Homo sapiens, melanoma, Fig 1D, read-out: Log10 GI50 (MALME-3M) (converted)
Description: as §1

[13] = system: NCI/ADR-RES; test: NCI60 5-dose screen, NCI/ADR-RES; format: cell-based; details: Homo sapiens, ovarian cancer, Fig 1D, read-out: Log10 GI50 (NCI/ADR-RES) (converted)
Description: as §1

[14] = system: RXF 393; test: NCI60 5-dose screen, RXF 393; format: cell-based; details: Homo sapiens, renal cancer, Fig 1D, read-out: Log10 GI50 (RXF 393) (converted)
Description: as §1

[15] = system: tubulin; test: Fluorescence-based tubulin polymerization assay; format: biochemical; details: purified tubulin, fluorescent reporter, vs DMSO control
Description: Tubulin polymerization in vitro was analyzed using the fluorescence-based tubulin polymerization assay (Cytoskeleton, Inc.), according to the manufacturer’s guidelines. Fluorescence was read on a SaFire II microplate reader (Tecan).

[16] = system: HOP-92; test: NCI60 5-dose screen, HOP-92; format: cell-based; details: Homo sapiens, non-small cell lung cancer, Fig 1D, read-out: Log10 GI50 (HOP-92) (converted)
Description: as §1

[17] = Fig 1D, read-out: mean GI50 (log10) (converted)
[18] = read-out: mean GI50 across the panel

Compound | GI50 [1] [nM] | GI50 [2] [nM] | IC50 [3] [nM] | GI50 [4] [nM] | GI50 [5] [nM] | GI50 [6] [nM] | GI50 [7] [nM] | GI50 [8] [nM] | effect on microtubule network [9] | GI50 [10, 17] [nM] | GI50 [10, 18] [nM] | number of cell lines with GI50 lower than 10 nM ([10]; out of the cell lines tested) | GI50 [11] [nM] | GI50 [12] [nM] | GI50 [13] [nM] | GI50 [14] [nM] | effect on tubulin polymerization in vitro [15] | GI50 [16] [nM]
Cc1ccnc(Nc2ccc([N+](=O)[O-])c(NCCN3CCOCC3)n2)c1 [Compound 4AZA2996, N^6-(4-methylpyridin-2-yl)-N^2-(2-morpholinoethyl)-3-nitropyridine-2,6-diamine] | < 10 | 38 | 14 | < 10 | < 10 | < 10 | < 10 | < 10 | disintegrate the microtubule network | 21.9 | 21.9 | 31 of the 50 | 26300 | – | – | – | – | –
Cc1cc(C)cc(Nc2ccc([N+](=O)[O-])c(NCCN3CCOCC3)n2)c1 [Compound 4AZA2891, 6-(3,5-dimethylanilino)-2-(2-morpholinoethylamino)-3-nitropyridine] | 16.6 | 34.7 | 19.8 | 12 | 14.8 | < 10 | < 10 | < 10 | disintegrate the microtubule network | 35.5 | 35.5 | – | – | 15800 | < 10 | 38.9 | dose-dependently inhibits tubulin polymerization | < 10

— publication PMC11542830, “3-nitropyridine analogues as novel microtubule-targeting agents” (PLOS ONE, 2024)
